Records with an inconclusive call do not appear. The source made the active and inactive calls.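 Rule for the calls: active = valid dose-response fit whose half-maximal growth-inhibiting concentration is at or below a set limit above the top tested dose; inconclusive = flat fit with effect between 30 and 70%, or poor fit; inactive = half-maximal concentration above a set limit.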
Assay: antibacterial activity against Clostridioides difficile – 10-point retest, dose response (AID 1259246)
Details: Clostridioides difficile clinical isolate growth, OD600, 24 h; at 60 µM (top of the series)

Row | SMILES | activity change, negative = inhibition
1 | C[C@H](CO)N1C[C@H](C)[C@@H](CN(C)S(=O)(=O)c2cn(C)cn2)OCCCC[C@H](C)Oc2ccc(NC(=O)Nc3cccc4ccccc34)cc2C1=O | 4.46% (inactive)
2 | C[C@H](CO)N1C[C@H](C)[C@@H](CN(C)S(=O)(=O)c2ccc(Cl)cc2)Oc2c(NC(=O)Nc3ccc(C(F)(F)F)cc3)cccc2C1=O | 25% (inactive)
3 | C[C@H]1CCCCO[C@H](CN(C)Cc2ccccc2)[C@@H](C)CN([C@@H](C)CO)C(=O)c2cc(NC(=O)Nc3ccc(C(F)(F)F)cc3)ccc2O1 | 3.08% (inactive)
4 | C[C@H]1CN([C@@H](C)CO)S(=O)(=O)c2ccc(C#CC3CCCC3)cc2O[C@@H]1CN(C)Cc1cccnc1 | 7.15% (inactive)
5 | C[C@@H]1CN([C@H](C)CO)C(=O)Cc2cc(NC(=O)CCCN(C)C)ccc2O[C@@H]1CN(C)Cc1ccc(-c2ccccc2)cc1 | 28.6% (inactive)
6 | COc1ccccc1CNC(=O)C[C@H]1C[C@H]2c3cc(NC(=O)NC4CCCC4)ccc3O[C@H]2[C@H](CO)O1 | -5.15% (inactive)

Same assay, conditions: Clostridioides difficile clinical isolate growth, OD600, 24 h; at 120 µM (top of the series)

Row | SMILES | activity change, negative = inhibition
7 | CO[C@H]1CN(C)C(=O)c2cc(NC(=O)c3ccc(-c4ccccc4)cc3)ccc2OC[C@@H](C)NC[C@@H]1C | 30.6% (inactive)
8 | C[C@H](CO)N1C[C@H](C)[C@@H](CN(C)S(=O)(=O)c2ccc(Cl)cc2)Oc2c(NC(=O)Nc3ccc(C(F)(F)F)cc3)cccc2C1=O | 61.8% (inactive)
9 | COc1ccc(NC(=O)Nc2ccc3c(c2)[C@H]2C[C@H](CC(=O)NCc4ccccc4F)O[C@@H](CO)[C@H]2O3)cc1 | 3.92% (inactive)
10 | COc1ccc(CNC(=O)C[C@H]2C[C@@H]3c4cc(NC(=O)NC5CCCC5)ccc4O[C@@H]3[C@@H](CO)O2)cc1 | 6.58% (inactive)
11 | C[C@H](CO)N1C[C@H](C)[C@@H](CN(C)C(=O)NC2CCCCC2)Oc2c(NC(=O)Nc3cccc4ccccc34)cccc2C1=O | 23.7% (inactive)
12 | O=C(C[C@@H]1C[C@@H]2c3cc(NC(=O)C4CCC4)ccc3O[C@@H]2[C@@H](CO)O1)NCc1ccc(Cl)cc1 | -5.46% (inactive)
13 | C[C@H](CO)N1C[C@H](C)[C@@H](CN(C)C(=O)NC2CCCCC2)Oc2c(NC(=O)Nc3ccccc3)cccc2C1=O | 12.2% (inactive)
14 | COc1ccc(NC(=O)Nc2cccc3c2O[C@@H](CN(C)Cc2ccc(Oc4ccccc4)cc2)[C@H](C)CN([C@H](C)CO)C3=O)cc1 | 16.6% (inactive)
15 | CC(C)C#Cc1ccc2c(c1)O[C@H](CN(C)CC1CCOCC1)[C@H](C)CN([C@@H](C)CO)S2(=O)=O | 4.6% (inactive)
16 | CC(C)CC#Cc1ccc2c(c1)O[C@H](CN(C)Cc1ccc(F)cc1)[C@H](C)CN([C@@H](C)CO)S2(=O)=O | 34.5% (inactive)
17 | O=C(C[C@H]1C[C@H]2c3cc(NC(=O)C4CCC4)ccc3O[C@H]2[C@H](CO)O1)NCc1ccc(Cl)cc1 | 6.93% (inactive)
18 | C[C@@H]1CN([C@@H](C)CO)C(=O)Cc2cc(NC(=O)CCCN(C)C)ccc2O[C@H]1CN(C)Cc1ccc(C(F)(F)F)cc1 | 23.8% (inactive)
19 | COc1ccc(NC(=O)N(C)C[C@H]2Oc3ccc(NC(=O)C4CC4)cc3CC(=O)N([C@H](C)CO)C[C@H]2C)cc1 | -3.71% (inactive)
20 | CC(C)C#Cc1ccc2c(c1)O[C@@H](CN(C)Cc1cccnc1)[C@H](C)CN([C@H](C)CO)S2(=O)=O | 27.7% (inactive)
21 | O=C(C[C@@H]1C[C@@H]2c3cc(NC(=O)C4CCC4)ccc3O[C@@H]2[C@H](CO)O1)NCc1ccc(Cl)cc1 | -2.36% (inactive)
22 | C[C@H](CO)N1C[C@H](C)[C@@H](CN(C)Cc2ccncc2)Oc2cc(-c3ccccc3)ccc2S1(=O)=O | 21.1% (inactive)
23 | C[C@@H]1CN([C@H](C)CO)S(=O)(=O)c2ccc(C#CCN(C)C)cc2O[C@@H]1CN(C)Cc1ccc2c(c1)OCO2 | 0.003% (inactive)
24 | C[C@@H]1CCCCO[C@H](CN(C)S(=O)(=O)c2ccc(F)cc2)[C@@H](C)CN([C@@H](C)CO)C(=O)c2cc(NC(=O)Nc3cccc4ccccc34)ccc2O1 | 19.1% (inactive)
25 | N#C[C@H]1[C@H](c2ccc(C#Cc3ccccc3F)cc2)[C@@H](CO)N1C(=O)C1CCCCC1 | 24.9% (inactive)
26 | CO[C@@H]1CN(C)C(=O)c2ccc(NC(=O)c3nc4ccccc4s3)cc2OC[C@H](C)N(Cc2ccncc2)C[C@H]1C | 7.34% (inactive)
27 | C[C@H]1CN([C@@H](C)CO)C(=O)Cc2cc(NC(=O)CCCN(C)C)ccc2O[C@@H]1CN(C)Cc1ccc(Oc2ccccc2)cc1 | 32.2% (inactive)
28 | COc1ccccc1CNC(=O)C[C@@H]1C[C@@H]2c3cc(NC(=O)NC4CCCC4)ccc3O[C@@H]2[C@@H](CO)O1 | 2.23% (inactive)
29 | CO[C@H]1CN(C)C(=O)c2ccc(NC(=O)C3CCC3)cc2OC[C@H](C)N(Cc2ccncc2)C[C@@H]1C | -5.3% (inactive)
30 | C[C@H]1CN([C@@H](C)CO)S(=O)(=O)c2ccc(Br)cc2O[C@@H]1CN(C)Cc1cccnc1 | -0.003% (inactive)
31 | C[C@H]1CN([C@@H](C)CO)S(=O)(=O)c2ccc(C#Cc3ccccc3F)cc2O[C@@H]1CN(C)C | 10.1% (inactive)
32 | C[C@H]1CCCCO[C@@H](CN(C)S(=O)(=O)c2ccc(F)cc2)[C@@H](C)CN([C@@H](C)CO)C(=O)c2cc(NC(=O)Nc3cccc4ccccc34)ccc2O1 | 42.1% (inactive)
33 | C[C@@H]1CN([C@H](C)CO)S(=O)(=O)c2ccc(C3=CCCCC3)cc2O[C@H]1CN(C)Cc1ccccc1 | 12.5% (inactive)
34 | C[C@@H]1CN([C@H](C)CO)S(=O)(=O)c2ccc(C#CC3CCCCC3)cc2O[C@@H]1CN(C)Cc1cccnc1 | 20.4% (inactive)
35 | C[C@@H]1CN([C@@H](C)CO)S(=O)(=O)c2ccc(/C=C/c3ccccc3)cc2O[C@H]1CN(C)C(=O)c1ccccc1 | 18.9% (inactive)

Same assay, conditions: Clostridioides difficile clinical isolate growth, OD600, 24 h; at 135 µM (top of the series)

Row | SMILES | activity change, negative = inhibition
36 | C[C@@H]1CN([C@@H](C)CO)C(=O)Cc2cc(NC(=O)Nc3ccccc3)ccc2O[C@@H]1CN(C)Cc1ccc(-c2ccccc2)cc1 | 23.5% (inactive)
37 | C[C@@H]1CN([C@@H](C)CO)C(=O)Cc2cc(NC(=O)C3CC3)ccc2O[C@@H]1CN(C)Cc1ccccc1 | 0.355% (inactive)
38 | O=C(C[C@@H]1C[C@@H]2c3cc(NS(=O)(=O)c4ccc(F)cc4)ccc3O[C@@H]2[C@@H](CO)O1)NCc1ccc(-c2ccccc2)cc1 | 18.3% (inactive)
39 | CO[C@H]1CN(C)C(=O)c2cc(NC(=O)c3nc4ccccc4s3)ccc2OC[C@H](C)N(Cc2ccncc2)C[C@H]1C | 20.9% (inactive)
40 | CO[C@H]1CN(C)C(=O)c2cc(NC(=O)c3ccc(-c4ccccc4)cc3)ccc2OC[C@H](C)NC[C@@H]1C | 34.1% (inactive)
41 | Cc1ccc(S(=O)(=O)N[C@H]2CC[C@H](CCNS(=O)(=O)Cc3ccccc3)O[C@@H]2CO)cc1 | -4.21% (inactive)
42 | C[C@@H]1CN([C@H](C)CO)C(=O)c2cccc(NC(=O)Nc3ccc4c(c3)OCO4)c2O[C@@H]1CN(C)Cc1ccc(-c2ccccc2)cc1 | 12.1% (inactive)
43 | COc1ccc(-c2ccc([C@H]3[C@H](C#N)N(C(=O)C4CC4)[C@H]3CO)cc2)cc1 | -0.086% (inactive)
44 | CO[C@H]1CN(C)C(=O)c2cc(NC(=O)c3ccccc3)ccc2OC[C@H](C)NC[C@H]1C | -3.19% (inactive)

From PubChem BioAssay AID1259246 (Broad Institute, 2017)
